According to PMC8820820, “Feasibility and safety of targeting mitochondria for cancer therapy – preclinical characterization of gamitrinib, a first-in-class, mitochondriaL-targeted small molecule Hsp90 inhibitor” (Cancer Biology & Therapy, 2022):
Values joined by “and” are separate entries in the source; they are usually repeats but may differ in a detail not shown here. Equal values may be shown once. “Also recorded” adds a separate entry of the source.

Key:
[1] = Gamitrinib pharmacokinetics in rat plasma, single IV dose; format: in vivo, Sprague-Dawley rats
Method: Sprague-Dawley rats (n = 3) were administered with a single intravenous (IV) dose of 1 mL Gamitrinib (5 mg/kg) formulated as described above without added microfluidization. Blood samples were collected via lateral tail vein using K2EDTA as an anticoagulant at 0.083, 0.25, 0.5, 1, 2, 4, and 24 h post-dose, chilled on ice, and centrifuged at 5000 rpm for 10 min. Aliquots (0.2 mL) of each plasma sample were stored frozen at −20°C. For analysis, 50 µL aliquots of the study samples were mixed with 50 µL of ACN/H2O (50:50), extracted by protein precipitation using ACN containing the internal standard Gamitrinib-d15 (100 ng/mL), and the aliquots of the supernatant were mixed with deionized water for Gamitrinib determination. Batch samples under analysis included a calibration curve, a matrix blank (blank rat plasma), a reagent blank, a control zero (blank rat plasma spiked with internal standard), and duplicate QC samples at three concentration levels (low, medium, and high) in addition to the study samples. Within each batch, the study samples were bracketed by calibration standards or QC samples. The lowest calibration standard served to evaluate system suitability at the beginning of each batch. […] Overall, the concentration of Gamitrinib was measured in 21 rat plasma samples in 1 analytical batch using LC-MS/MS data acquisition on a Shimadzu Nexera LC system coupled with an AB Sciex Triple Quad 5500 mass spectrometer. Chromatograms were integrated using Analyst 1.6.2 software. A weighted (1/x^2, x = concentration) linear regression was used to generate the calibration curve for Gamitrinib. […] The mean, standard deviation, precision, accuracy, and assay variability were calculated using Microsoft Excel.

CYP2C8 = molecular target: T1, CYP2C8 (Homo sapiens, UniProt P10632); details: microsomes
T1 sequence (P10632 1-490): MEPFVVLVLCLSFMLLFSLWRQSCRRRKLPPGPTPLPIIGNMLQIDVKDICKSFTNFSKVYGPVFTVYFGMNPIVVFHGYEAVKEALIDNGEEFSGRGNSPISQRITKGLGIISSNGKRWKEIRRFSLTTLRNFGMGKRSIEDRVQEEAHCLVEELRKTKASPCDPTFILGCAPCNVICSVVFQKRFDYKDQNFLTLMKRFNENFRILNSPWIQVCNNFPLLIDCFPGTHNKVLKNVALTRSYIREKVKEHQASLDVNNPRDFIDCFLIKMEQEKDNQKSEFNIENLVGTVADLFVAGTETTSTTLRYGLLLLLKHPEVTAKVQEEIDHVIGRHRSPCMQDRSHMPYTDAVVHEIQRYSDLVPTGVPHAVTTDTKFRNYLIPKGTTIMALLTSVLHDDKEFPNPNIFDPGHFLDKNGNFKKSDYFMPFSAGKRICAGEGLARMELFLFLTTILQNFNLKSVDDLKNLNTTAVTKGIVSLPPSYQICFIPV

CYP2C9 = CYP2C9 (Homo sapiens, UniProt P11712); details: microsomes
Kir2.1 = molecular target: T2, Kir2.1 (Homo sapiens, UniProt P63252); assay: Ion channel screening; format: cell-based; details: 10 µM, pulse 10
T2 sequence (P63252 1-427): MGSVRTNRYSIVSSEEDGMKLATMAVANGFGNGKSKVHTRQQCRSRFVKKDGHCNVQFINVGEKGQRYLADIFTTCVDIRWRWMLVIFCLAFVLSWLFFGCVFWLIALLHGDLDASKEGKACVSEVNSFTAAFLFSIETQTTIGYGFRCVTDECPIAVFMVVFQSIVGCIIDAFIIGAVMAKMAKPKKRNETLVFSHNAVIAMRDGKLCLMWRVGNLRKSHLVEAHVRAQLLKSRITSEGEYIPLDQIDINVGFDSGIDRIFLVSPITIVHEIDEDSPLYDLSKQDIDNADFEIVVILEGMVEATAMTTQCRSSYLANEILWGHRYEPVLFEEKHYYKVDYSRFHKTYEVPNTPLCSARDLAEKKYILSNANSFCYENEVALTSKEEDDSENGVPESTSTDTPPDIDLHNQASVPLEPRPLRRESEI

tumor cell = tested on: tumor cell; design: method as in PMID 19229106, PMID 29348817; details: in culture; read-out: IC50 of tumor cell killing; cited from earlier work
tumor = details: mice; cited from earlier work
KCNQ1/mink = KCNQ1/mink (Homo sapiens, UniProt P51787); assay: Ion channel screening; format: cell-based; details: 10 µM
[2] = Stability in human plasma

CYP2C9, sequence (P11712 whole entry): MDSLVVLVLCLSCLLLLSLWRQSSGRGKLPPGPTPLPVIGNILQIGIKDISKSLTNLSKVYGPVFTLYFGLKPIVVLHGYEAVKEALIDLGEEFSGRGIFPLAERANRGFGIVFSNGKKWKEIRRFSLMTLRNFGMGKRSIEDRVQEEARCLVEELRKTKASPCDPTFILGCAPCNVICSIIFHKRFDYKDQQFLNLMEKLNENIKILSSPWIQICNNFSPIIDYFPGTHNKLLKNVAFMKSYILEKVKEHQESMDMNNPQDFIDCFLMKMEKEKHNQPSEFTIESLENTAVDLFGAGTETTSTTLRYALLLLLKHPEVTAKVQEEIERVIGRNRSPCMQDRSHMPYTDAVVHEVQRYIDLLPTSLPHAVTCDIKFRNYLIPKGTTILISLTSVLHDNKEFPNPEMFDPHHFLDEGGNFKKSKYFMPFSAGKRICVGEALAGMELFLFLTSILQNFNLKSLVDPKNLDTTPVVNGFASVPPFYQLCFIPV
KCNQ1/mink, sequence (P51787 whole entry): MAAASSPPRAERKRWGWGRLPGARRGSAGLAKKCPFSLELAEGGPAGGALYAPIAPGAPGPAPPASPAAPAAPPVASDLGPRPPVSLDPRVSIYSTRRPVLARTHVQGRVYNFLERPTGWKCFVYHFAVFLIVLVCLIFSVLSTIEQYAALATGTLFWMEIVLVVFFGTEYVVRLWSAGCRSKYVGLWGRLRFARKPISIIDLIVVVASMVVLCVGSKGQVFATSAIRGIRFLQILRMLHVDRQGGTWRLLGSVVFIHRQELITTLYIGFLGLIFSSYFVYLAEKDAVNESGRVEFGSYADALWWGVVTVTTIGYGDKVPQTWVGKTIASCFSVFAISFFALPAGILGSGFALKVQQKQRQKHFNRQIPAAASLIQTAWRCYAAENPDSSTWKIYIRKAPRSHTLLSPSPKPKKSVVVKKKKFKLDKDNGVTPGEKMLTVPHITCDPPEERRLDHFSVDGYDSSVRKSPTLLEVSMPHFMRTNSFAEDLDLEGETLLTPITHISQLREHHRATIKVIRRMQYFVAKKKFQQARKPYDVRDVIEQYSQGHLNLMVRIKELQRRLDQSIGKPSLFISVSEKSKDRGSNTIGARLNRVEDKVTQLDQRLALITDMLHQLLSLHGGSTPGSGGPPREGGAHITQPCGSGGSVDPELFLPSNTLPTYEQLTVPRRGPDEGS

For `COC1C=CC=C(C)C(=O)NC2=CC(=O)C(NCCCCCC[P+](c3ccccc3)(c3ccccc3)c3ccccc3)=C(CC(C)CC(OC)C(O)C(C)C=C(C)C1OC(N)=O)C2=O.F[P-](F)(F)(F)(F)F` (stereo not shown) [Gamitrinib], the AUCINF ([1]; 5 mg/kg IV, Mean (n = 3)) was 976.002 ng·h/mL, the “AUClast (AUC0-t)” value ([1]; 5 mg/kg IV, Mean (n = 3)) was 783.1 ± 71.3 ng·h/mL and 783.199 ng·h/mL and the CL ([1]; 5 mg/kg IV, Mean (n = 3)) was 85.6 ± 5.8 mL/min/kg and 85.65 ± 5.85 mL/min/kg and 85.656 mL/min/kg. It also gave an MRT ([1]; 5 mg/kg IV, Mean (n = 3)) of 5.492 h, a Vss ([1]; 5 mg/kg IV, Mean (n = 3)) of 65.471 L/kg and a Vz ([1]; 5 mg/kg IV, Mean (n = 3)) of 91.159 L/kg. For the same molecule, the t1/2 ([1]; 5 mg/kg IV, Mean (n = 3)) was 12.2 ± 1.55 h and 12.250 h, the AUCINF ([1]; 5 mg/kg IV, Rat 1) was 1051.752 ng·h/mL and the AUClast ([1]; 5 mg/kg IV, Rat 1) was 851.441 ng·h/mL. For the same molecule, the CL ([1]; 5 mg/kg IV, Rat 1) was 79.233 mL/min/kg, the Cmax ([1]; 5 mg/kg IV, Rat 1) was 1153.712 ng/mL and the MRT ([1]; 5 mg/kg IV, Rat 1) was 5.539 h. For the same molecule, the Vss ([1]; 5 mg/kg IV, Rat 1) was 58.230 L/kg, the Vz ([1]; 5 mg/kg IV, Rat 1) was 79.715 L/kg and the t1/2 ([1]; 5 mg/kg IV, Rat 1) was 11.623 h. The AUCINF ([1]; 5 mg/kg IV, Rat 2) was 957.472 ng·h/mL, the AUClast ([1]; 5 mg/kg IV, Rat 2) was 789.045 ng·h/mL and the CL ([1]; 5 mg/kg IV, Rat 2) was 87.035 mL/min/kg. The Cmax ([1]; 5 mg/kg IV, Rat 2) was 829.668 ng/mL, the MRT ([1]; 5 mg/kg IV, Rat 2) was 5.411 h and the Vss ([1]; 5 mg/kg IV, Rat 2) was 60.052 L/kg. It also gave a Vz ([1]; 5 mg/kg IV, Rat 2) of 83.678 L/kg, a t1/2 ([1]; 5 mg/kg IV, Rat 2) of 11.107 h and an AUCINF ([1]; 5 mg/kg IV, Rat 3) of 918.784 ng·h/mL. The AUClast ([1]; 5 mg/kg IV, Rat 3) was 709.112 ng·h/mL, the CL ([1]; 5 mg/kg IV, Rat 3) was 90.700 mL/min/kg and the Cmax ([1]; 5 mg/kg IV, Rat 3) was 1544.041 ng/mL. It also gave an MRT ([1]; 5 mg/kg IV, Rat 3) of 5.524 h, a Vss ([1]; 5 mg/kg IV, Rat 3) of 78.131 L/kg and a Vz ([1]; 5 mg/kg IV, Rat 3) of 110.085 L/kg. It also gave a t1/2 ([1]; 5 mg/kg IV, Rat 3) of 14.022 h, a Gamitrinib plasma concentration ([1]; 5 mg/kg IV, animal 1, 5 min) of 622.199 ng/mL and a Gamitrinib plasma concentration ([1]; 5 mg/kg IV, animal 1, 15 min) of 180.951 ng/mL. It also gave a Gamitrinib plasma concentration ([1]; 5 mg/kg IV, animal 1, 30 min) of 106.381 ng/mL, a Gamitrinib plasma concentration ([1]; 5 mg/kg IV, animal 1, 60 min) of 71.445 ng/mL and a Gamitrinib plasma concentration ([1]; 5 mg/kg IV, animal 1, 120 min) of 46.657 ng/mL. For the same molecule, the Gamitrinib plasma concentration ([1]; 5 mg/kg IV, animal 1, 240 min) was 36.816 ng/mL, the Gamitrinib plasma concentration ([1]; 5 mg/kg IV, animal 1, 1440 min) was 11.946 ng/mL and the Gamitrinib plasma concentration ([1]; 5 mg/kg IV, animal 2, 5 min) was 526.229 ng/mL. For the same molecule, the Gamitrinib plasma concentration ([1]; 5 mg/kg IV, animal 2, 15 min) was 211.686 ng/mL, the Gamitrinib plasma concentration ([1]; 5 mg/kg IV, animal 2, 30 min) was 114.230 ng/mL and the Gamitrinib plasma concentration ([1]; 5 mg/kg IV, animal 2, 60 min) was 65.903 ng/mL. It also gave a Gamitrinib plasma concentration ([1]; 5 mg/kg IV, animal 2, 120 min) of 43.125 ng/mL, a Gamitrinib plasma concentration ([1]; 5 mg/kg IV, animal 2, 240 min) of 34.776 ng/mL and a Gamitrinib plasma concentration ([1]; 5 mg/kg IV, animal 2, 1440 min) of 10.511 ng/mL. The Gamitrinib plasma concentration ([1]; 5 mg/kg IV, animal 3, 5 min) was 674.432 ng/mL, the Gamitrinib plasma concentration ([1]; 5 mg/kg IV, animal 3, 15 min) was 128.663 ng/mL and the Gamitrinib plasma concentration ([1]; 5 mg/kg IV, animal 3, 30 min) was 67.204 ng/mL. The Gamitrinib plasma concentration ([1]; 5 mg/kg IV, animal 3, 60 min) was 55.991 ng/mL, the Gamitrinib plasma concentration ([1]; 5 mg/kg IV, animal 3, 120 min) was 29.914 ng/mL and the Gamitrinib plasma concentration ([1]; 5 mg/kg IV, animal 3, 240 min) was 28.905 ng/mL. The Gamitrinib plasma concentration ([1]; 5 mg/kg IV, animal 3, 1440 min) was 10.365 ng/mL, the “generation of metabolite 17-AG” value ([1]; rats, IV Gamitrinib 5 mg/kg, plasma) was “without generation of 17-AG; also recorded: did not generate detectable levels; also recorded: no generation of 17-AG” and the IC50 (CYP2C8) was 8000 nM. The IC50 (CYP2C9) was 1100 nM, the “inhibition of Kir2.1 currents” value (Kir2.1) was −7.3 ± 3.4% and the IC50 (tumor cell) was 1000 to 4000 nM. For the same molecule, the therapeutically effective dose (tumor) was 10 mg/kg, the “inhibition of KCNQ1/mink currents” value (KCNQ1/mink) was 22.5 ± 1.1% and the average recovery [2] was 82.8 ± 3%. The “stability in human plasma” value [2] was 91.4%.
